Assay results taken from ChEMBL document CHEMBL2040787, “Synthesis and carbonic anhydrase inhibitory properties of novel bromophenols and their derivatives including natural products: vidalol B” (Eur J Med Chem, 2012).

How the values were obtained:
Carbonic anhydrase 6 = Carbonic anhydrase 6 (Homo sapiens, UniProt P23280); experiment: Inhibition of human CA6 using 4NPA as substrate for 3 mins by Lineweaver burk plot analysis
Carbonic anhydrase 4 = Carbonic anhydrase 4 (Homo sapiens, UniProt P22748); experiment: Inhibition of human CA4 using 4NPA as substrate for 3 mins by Lineweaver burk plot analysis
Chain of Carbonic anhydrase 4 (P22748 whole entry): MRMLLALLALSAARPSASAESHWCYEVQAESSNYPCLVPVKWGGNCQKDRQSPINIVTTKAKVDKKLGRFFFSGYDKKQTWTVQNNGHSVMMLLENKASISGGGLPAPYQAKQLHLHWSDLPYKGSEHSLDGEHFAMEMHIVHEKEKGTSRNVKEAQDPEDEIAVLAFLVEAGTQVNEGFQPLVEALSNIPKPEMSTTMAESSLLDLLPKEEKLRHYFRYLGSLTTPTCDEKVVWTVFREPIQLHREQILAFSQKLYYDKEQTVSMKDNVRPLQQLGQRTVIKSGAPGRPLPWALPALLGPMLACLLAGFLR

Carbonic anhydrase 1 = Carbonic anhydrase 1 (Homo sapiens, UniProt P00915); experiment: Noncompetitive inhibition of human CA1 using 4NPA as substrate for 3 mins by Lineweaver burk plot analysis
Chain of Carbonic anhydrase 1 (P00915 whole entry): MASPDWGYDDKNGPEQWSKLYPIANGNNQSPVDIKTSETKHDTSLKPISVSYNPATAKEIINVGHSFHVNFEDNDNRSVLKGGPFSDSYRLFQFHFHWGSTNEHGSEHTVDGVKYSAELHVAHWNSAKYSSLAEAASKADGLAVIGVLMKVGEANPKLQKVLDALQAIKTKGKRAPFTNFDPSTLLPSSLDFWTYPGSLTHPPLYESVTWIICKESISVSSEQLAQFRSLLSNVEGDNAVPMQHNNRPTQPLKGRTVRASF

Carbonic anhydrase 2 = Carbonic anhydrase 2 (Homo sapiens, UniProt P00918); experiment: Inhibition of human CA2 using 4NPA as substrate for 3 mins by Lineweaver burk plot analysis

Chain of Carbonic anhydrase 6 (P23280 whole entry): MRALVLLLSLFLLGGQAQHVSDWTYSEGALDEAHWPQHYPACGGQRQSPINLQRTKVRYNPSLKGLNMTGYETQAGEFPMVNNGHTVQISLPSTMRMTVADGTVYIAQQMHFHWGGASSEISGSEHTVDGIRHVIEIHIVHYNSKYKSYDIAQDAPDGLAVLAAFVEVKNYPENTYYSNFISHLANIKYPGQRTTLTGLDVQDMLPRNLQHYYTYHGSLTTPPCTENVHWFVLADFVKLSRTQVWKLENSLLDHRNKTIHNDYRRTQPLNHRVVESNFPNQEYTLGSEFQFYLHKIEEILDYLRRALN

| Ki (Carbonic anhydrase 6) | Ki (Carbonic anhydrase 4) | Ki (Carbonic anhydrase 1) | Ki (Carbonic anhydrase 2) | SMILES |
| --- | --- | --- | --- | --- |
| 382 µM | 145 µM | 537 µM | 59.1 µM | COc1ccc(Cc2ccc(OC)c(OC)c2)cc1OC |
| 13.7 µM | 7.64 µM | 18.4 µM | 5.64 µM | Oc1ccc(Cc2ccc(O)c(O)c2)cc1O |

The remaining lines, values behind:

| SMILES | Ki (Carbonic anhydrase 6) | Ki (Carbonic anhydrase 4) | Ki (Carbonic anhydrase 1) | Ki (Carbonic anhydrase 2) |
| --- | --- | --- | --- | --- |
| COc1ccc(C(=O)O)cc1OC [VERATRIC ACID] | 24.4 µM | 6.48 µM | – | – |
| O=C(O)c1ccc(O)c(O)c1 [PROTOCATECHUIC ACID] | – | 2.45 µM | – | – |
| COc1ccccc1 [ANISOLE] | 235 µM | – | – | – |
| COc1c(Br)c(Br)c(Cc2c(Br)c(Br)c(OC)c(OC)c2Br)c(Br)c1OC | 29.7 µM | 32.7 µM | 43.5 µM | 35.5 µM |
